Laboratory results reported in PubChem BioAssay (NCI).
Values joined by “and” are separate entries in the source; they are usually repeats but may differ in a detail not shown here. Equal values may be shown once.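 In this assay, cells in 96-well plates receive the compound at five concentrations for 48 hours. Endpoints are linearly interpolated between the surrounding concentrations. Abbreviation: GI50, concentration required for 50% inhibition of growth. At the TGI there is no net growth.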

How the values were obtained:
Experiment in all cases: NCI-60 cell line screen, 48 h
[1] = test system: 786-0 renal
[2] = test system: A498 renal
[3] = test system: A549 NSCLC
[4] = test system: ACHN renal
[5] = test system: CAKI-1 renal
[6] = test system: CCRF-CEM leukemia
[7] = test system: DLD-1 colon
[8] = test system: DMS 273 small cell lung
[9] = test system: EKVX NSCLC
[10] = test system: HCC-2998 colon
[11] = test system: HCT-116 colon
[12] = test system: HCT-15 colon
[13] = test system: HL-60(TB) leukemia
[14] = test system: HOP-18 NSCLC
[15] = test system: HOP-62 NSCLC
[16] = test system: HOP-92 NSCLC
[17] = test system: HT29 colon
[18] = test system: IGROV1 ovarian
[19] = test system: K-562 leukemia
[20] = test system: KM12 colon
[21] = test system: KM20L2 colon
[22] = test system: LOX IMVI melanoma
[23] = test system: LXFL 529 NSCLC
[24] = test system: M14 melanoma
[25] = test system: M19-MEL melanoma
[26] = test system: MALME-3M melanoma
[27] = test system: MOLT-4 leukemia
[28] = test system: NCI-H226 lung
[29] = test system: NCI-H23 lung
[30] = test system: NCI-H460 lung
[31] = test system: OVCAR-3 ovarian
[32] = test system: OVCAR-4 ovarian
[33] = test system: OVCAR-5 ovarian
[34] = test system: OVCAR-8 ovarian
[35] = test system: RPMI-8226 leukemia
[36] = test system: RXF 393 renal
[37] = test system: SF-268 CNS
[38] = test system: SF-295 CNS
[39] = test system: SF-539 CNS
[40] = test system: SK-MEL-2 melanoma
[41] = test system: SK-MEL-28 melanoma
[42] = test system: SK-MEL-5 melanoma
[43] = test system: SN12C renal
[44] = test system: SNB-19 CNS
[45] = test system: SNB-75 CNS
[46] = test system: SNB-78 CNS
[47] = test system: SR leukemia
[48] = test system: SW-620 colon
[49] = test system: TK-10 renal
[50] = test system: UACC-257 melanoma
[51] = test system: UACC-62 melanoma
[52] = test system: UO-31 renal
[53] = test system: XF 498 CNS
[54] = test system: COLO 205 colon
[55] = test system: DMS 114 small cell lung
[56] = test system: NCI-H522 lung
[57] = test system: RXF-631 renal
[58] = test system: SK-OV-3 ovarian
[59] = test system: U251 CNS

`CC(=O)CCn1ncc(Cl)c(Cl)c1=O` gave a TGI [1] of 54.9 µM, a TGI [2] of 42.9 µM and a TGI [3] of 44.6 µM. The TGI [4] was 30.9 µM, the TGI [5] was 3.66 µM and the TGI [6] was > 100 µM. For the same compound, the TGI [7] was 29.9 µM, the TGI [8] was 32 µM and the TGI [9] was 36.1 µM. For the same compound, the TGI [10] was 21.9 µM, the TGI [11] was 27.9 µM and the TGI [12] was 20.5 µM. For the same compound, the TGI [13] was 63.2 µM, the TGI [14] was 30.5 µM and the TGI [15] was 35.4 µM. For the same compound, the TGI [16] was 34.1 µM, the TGI [17] was 34.1 µM and the TGI [18] was 35.9 µM. It also gave a TGI [19] of 18.5 µM, a TGI [20] of 41.5 µM and a TGI [21] of 36.2 µM. For the same compound, the TGI [22] was 30.5 µM, the TGI [23] was 27.3 µM and the TGI [24] was 29.7 µM. The TGI [25] was 17.2 µM, the TGI [26] was 36.2 µM and the TGI [27] was > 100 µM. It also gave a TGI [28] of 31.7 µM, a TGI [29] of 32.6 µM and a TGI [30] of 42.2 µM. For the same compound, the TGI [31] was 27.5 µM, the TGI [32] was 21.9 µM and the TGI [33] was 33.2 µM. The TGI [34] was 54.9 µM, the TGI [35] was > 100 µM and the TGI [36] was 32.9 µM. The TGI [37] was 28 µM, the TGI [38] was 33.6 µM and the TGI [39] was 38.5 µM. For the same compound, the TGI [40] was 28.4 µM, the TGI [41] was 27.2 µM and the TGI [42] was 33.5 µM. It also gave a TGI [43] of 27.9 µM, a TGI [44] of 32.9 µM and a TGI [45] of 72 µM. For the same compound, the TGI [46] was 43 µM, the TGI [47] was 31.5 µM and the TGI [48] was 39 µM. The TGI [49] was > 100 µM, the TGI [50] was 31.5 µM and the TGI [51] was 33.3 µM. It also gave a TGI [52] of 34.6 µM and a TGI [53] of 35.5 µM.

`CCCCOC(=O)CNC(=O)OC/C=C/C#CC#C/C=C/COC(=O)NCC(=O)OCCCC` was tested, and the GI50 [1] was > 10 µM, the TGI [1] was > 100 µM and the GI50 [2] was > 100 µM. The TGI [2] was > 100 µM, the GI50 [3] was > 100 µM and the TGI [3] was > 100 µM. For the same compound, the GI50 [4] was > 100 µM, the TGI [4] was > 100 µM and the GI50 [5] was > 100 µM. The TGI [5] was > 100 µM, the GI50 [6] was > 100 µM and the TGI [6] was > 100 µM. For the same compound, the GI50 [54] was > 100 µM, the TGI [54] was > 100 µM and the GI50 [7] was > 100 µM. For the same compound, the TGI [7] was > 100 µM, the GI50 [55] was > 100 µM and the TGI [55] was > 100 µM. For the same compound, the GI50 [9] was > 100 µM, the TGI [9] was > 100 µM and the GI50 [10] was > 100 µM. The TGI [10] was > 100 µM, the GI50 [11] was > 100 µM and the TGI [11] was > 100 µM. For the same compound, the TGI [12] was > 10 µM, the GI50 [13] was > 100 µM and the TGI [13] was > 100 µM. For the same compound, the TGI [14] was > 10 µM, the GI50 [15] was > 100 µM and the TGI [15] was > 100 µM. The GI50 [16] was > 100 µM, the TGI [16] was > 100 µM and the GI50 [17] was > 100 µM. The TGI [17] was > 100 µM, the GI50 [18] was > 100 µM and the TGI [18] was > 100 µM. The GI50 [19] was > 100 µM, the TGI [19] was > 100 µM and the GI50 [20] was > 100 µM. The TGI [20] was > 100 µM, the GI50 [21] was > 100 µM and the TGI [21] was > 100 µM. For the same compound, the TGI [22] was > 10 µM, the GI50 [23] was > 100 µM and the TGI [23] was > 100 µM. For the same compound, the GI50 [24] was > 100 µM, the TGI [24] was > 100 µM and the GI50 [25] was > 100 µM. For the same compound, the TGI [25] was > 100 µM, the GI50 [26] was > 100 µM and the TGI [26] was > 100 µM. For the same compound, the GI50 [27] was > 100 µM, the TGI [27] was > 100 µM and the TGI [28] was > 10 µM. The GI50 [29] was > 100 µM, the TGI [29] was > 100 µM and the GI50 [30] was > 100 µM. The TGI [30] was > 100 µM, the GI50 [56] was > 100 µM and the TGI [56] was > 100 µM. For the same compound, the GI50 [31] was > 100 µM, the TGI [31] was > 100 µM and the GI50 [32] was > 100 µM. For the same compound, the TGI [32] was > 100 µM, the GI50 [33] was > 100 µM and the TGI [33] was > 100 µM. The GI50 [34] was > 100 µM, the TGI [34] was > 100 µM and the GI50 [35] was > 100 µM. For the same compound, the TGI [35] was > 100 µM, the GI50 [36] was > 100 µM and the TGI [36] was > 100 µM. The GI50 [57] was > 100 µM, the TGI [57] was > 100 µM and the GI50 [37] was > 100 µM. The TGI [37] was > 100 µM, the GI50 [38] was > 100 µM and the TGI [38] was > 100 µM. The GI50 [39] was > 100 µM, the TGI [39] was > 100 µM and the GI50 [40] was > 100 µM. For the same compound, the TGI [40] was > 100 µM, the GI50 [41] was > 100 µM and the TGI [41] was > 100 µM. For the same compound, the GI50 [42] was > 100 µM, the TGI [42] was > 100 µM and the GI50 [58] was > 100 µM. The TGI [58] was > 100 µM, the GI50 [43] was > 100 µM and the TGI [43] was > 100 µM. The GI50 [44] was > 100 µM, the TGI [44] was > 100 µM and the GI50 [45] was > 10 µM. The TGI [45] was > 10 µM and 88.8 µM, the TGI [46] was > 10 µM and the TGI [47] was > 10 µM. The TGI [48] was > 100 µM, the GI50 [49] was > 100 µM and the TGI [49] was > 100 µM. The GI50 [59] was > 100 µM, the TGI [59] was > 100 µM and the TGI [50] was > 10 µM. For the same compound, the GI50 [51] was > 100 µM, the TGI [51] was > 100 µM and the GI50 [52] was > 100 µM. For the same compound, the TGI [52] was > 100 µM and the TGI [53] was > 10 µM.

`O=[N+]([O-])c1cccc(C2=NN(c3ccccc3)C[N+](c3ccc(Br)cc3)=N2)c1` was tested, and the TGI [1] was > 100 µM, the TGI [2] was > 100 µM and the TGI [3] was > 100 µM. The TGI [4] was > 100 µM, the TGI [5] was > 100 µM and the TGI [54] was > 100 µM. For the same compound, the TGI [7] was > 100 µM, the TGI [8] was > 100 µM and the TGI [9] was > 100 µM. The TGI [10] was > 100 µM, the TGI [11] was > 100 µM and the TGI [12] was > 100 µM. The TGI [14] was > 100 µM, the TGI [15] was > 100 µM and the TGI [16] was > 100 µM. For the same compound, the TGI [17] was > 100 µM, the TGI [18] was > 100 µM and the TGI [19] was > 100 µM. For the same compound, the TGI [20] was > 100 µM, the TGI [21] was > 100 µM and the TGI [23] was > 100 µM. For the same compound, the TGI [24] was > 100 µM, the TGI [25] was > 100 µM and the TGI [26] was > 100 µM. For the same compound, the TGI [27] was > 100 µM, the TGI [29] was > 100 µM and the TGI [30] was > 100 µM. The TGI [56] was > 100 µM, the TGI [32] was > 100 µM and the TGI [33] was > 100 µM. For the same compound, the TGI [34] was > 100 µM, the TGI [35] was > 100 µM and the TGI [36] was > 100 µM. For the same compound, the TGI [37] was > 100 µM, the TGI [38] was > 100 µM and the TGI [39] was > 100 µM. For the same compound, the TGI [40] was > 100 µM, the TGI [41] was > 100 µM and the TGI [42] was > 100 µM. The TGI [58] was > 100 µM, the TGI [43] was > 100 µM and the TGI [44] was > 100 µM. For the same compound, the TGI [45] was > 100 µM, the TGI [46] was > 100 µM and the TGI [47] was 16.9 µM. For the same compound, the TGI [48] was > 100 µM, the TGI [49] was > 100 µM and the TGI [59] was > 100 µM. The TGI [50] was > 100 µM, the TGI [51] was > 100 µM and the TGI [52] was > 100 µM. For the same compound, the TGI [53] was > 100 µM.
